In paper PMC9967653, “Anticancer Activities of Novel Nicotinamide Phosphoribosyltransferase Inhibitors in Hematological Malignancies” (Molecules, 2023):
Like-named read-outs stand apart in the source and are kept apart here.

How the values were obtained:
[1] = test system: RPMI8226 cells (multiple myeloma); assay: Cell death after 96 h of treatment (ANXN/7AAD flow cytometry), RPMI8226; format: cell-based; settings: Homo sapiens, RPMI-8226; RPMI8226, 96 h
Protocol: (§1) Four hematological cell lines (ML2—acute myeloid leukemia; Jurkat—acute lymphoblastic leukemia; Namalwa—Burkitt lymphoma; and RPMI8226—multiple myeloma) were purchased from DSMZ (German Collection of Microorganisms and Cell Cultures, Braunschweig, Germany) or ATCC.
(§2) All cells were cultured in RPMI medium (Invitrogen AG, 61870-01) supplemented with 10% heat inactivated fetal calf serum (Amimed, 2-01F30-I) and 1% penicillin/streptomycin at 37 °C (Amimed, 4-01F00-H) in a humidified atmosphere of 95% air and 5% CO2.
(§3) To determine the cell death induced by NAMPT inhibitors, malignant cells were stained with ANNEXIN-V (ANXN, eBioscience, BMS306FI/300) and 7-aminoactinomycin D (7AAD, Immunotech, A07704) as described by the manufacturer and analyzed using flow cytometry. Dead cells were identified as ANXN+7AAD+ /7AAD+ and early apoptotic cells as ANXN+ 7AAD-. Specific cell death induced by inhibitors was calculated using the following formula: percent of cell death induced by compound = [(S – C) / (100 – C)] × 100; where S = treated sample cell death and C = untreated sample cell death.

[2] = test system: Namalwa cells (Burkitt lymphoma); assay: Cell death after 96 h of treatment (ANXN/7AAD flow cytometry), Namalwa; format: cell-based; settings: Homo sapiens
Protocol: as §1, §2, §3

[3] = Pharmacokinetics in mice after intraperitoneal administration; format: in vivo; settings: for Cmax / Tmax / CL/F / half-life / AUC(0-t) / Vd/F: female SCID mice, intraperitoneal, 20 mg/kg (Figure S1); for Cmax / Tmax / half-life / AUC(0-t) / Vd/F: plasma; for CL/F: dose divided by AUC0-24; for Vd/F: (CL/F)/λz, read-out: Vz/F
Protocol: Concentration measurements in mice EDTA plasma samples were performed using a Vanquish Flex ultra-high-performance liquid chromatography (UHPLC) system attached to a TSQ Quantis^TM triple quadrupole mass spectrometer (MS) (ThermoFisher Scientific, Waltham, MA, USA). The chromatographic column was a Luna Omega Polar C18 3 µm, 50 × 2.1 mm from Phenomenex (Torrance, CA, USA), kept at 40 °C in a UHPLC oven. The mobile phase was made of water and acetonitrile (ACN) with 0.1% formic acid in each. The gradient program ranged from 20 to 95% ACN in 1.5 min and the total method duration (including equilibration for the next injection) was 3 min. The flow rate and injection volume were 0.5 mL/min and 5 µL, respectively.
For the sample preparation, 90 µL of ACN was added to an aliquot of 30 µL of mouse plasma for protein precipitation. The mixture was then centrifugated at 14,000 rpm and the supernatant was directly injected in the UHPLC–MS.
Drug plasma concentrations were measured at selected time points after intraperitoneal administration in mice (sacrificed mice in triplicates for each time point). Samples were analyzed on two separate occasions for each sampling. Then, pharmacokinetic (PK) parameters were computed using standard non-compartmental calculations for geometric means of the measured concentrations using the “PKNCA R Package” (R version 4.0.2, R Development Core Team, http://www.r-project.org/ access date: 4 February 2023).
The area under the curve (AUC0-24) was calculated for the four drugs using the trapezoidal and log-trapezoidal rule when appropriate. The terminal rate constant (λz) was approximated using the slope of the terminal phase, while the half-life (T1/2) was calculated as ln(2)/λz, the apparent clearance (CL/F) as the dose divided by AUC0-24 and the apparent volume of distribution (Vz/F) as (CL/F)/λz.

[4] = test system: Jurkat cells (acute lymphoblastic leukemia); assay: Cell death after 96 h of treatment (ANXN/7AAD flow cytometry), Jurkat; format: cell-based; settings: Homo sapiens
Protocol: as §1, §2, §3

[5] = test system: ML2 cells (acute myeloid leukemia); assay: Cell death after 96 h of treatment (ANXN/7AAD flow cytometry), ML2; format: cell-based; settings: Homo sapiens, ML-2; ML2, 96 h
Protocol: as §1, §2, §3

purified NAMPT = target: T1, purified NAMPT (Homo sapiens, UniProt P43490); assay: NAMPT enzymatic activity assay (colorimetric kit); format: biochemical; settings: 1 µM final concentration
T1 construct: purchased Abcam ab221819
Protocol: The ability of FK866 (APO866) analogues to inhibit NAMPT activity was assessed with an NAMPT Activity Assay Kit (Colorimetric) (Abcam, ab221819, Cambridge, UK) according to the manufacturer’s instructions. Briefly, NAMPT inhibitors were dissolved in DMSO to a final concentration of 1 µM and distributed in a 96-well plate in duplicate. Then, a reaction mix containing assay buffer, ATP, NMNAT1, NAM, PRPP and ddH2O was added and the plate was incubated at 30 °C for 60 min. After, to measure the generated NAD^+, a mix of WST-1, ADH, diaphorase and ethanol was added to the wells. The absorbance was measured in kinetic mode at 450 nm on a microplate reader for 45 min at 30 °C.
Figure 2 New compounds with a potent NAMPT inhibitory activity. Compounds were added in 1 µM final concentration to purified NAMPT and incubated with co-substrates, resulting in a reduction of tetrazolium salt (WST-1) to colorful formazan. The amount of formed dye is directly proportional to the enzyme activity. The absorbance of the dye was detected at OD 450 nm.

[6] = test system: Namalwa tumors (human Burkitt lymphoma cell line); assay: Mouse xenograft model of human Burkitt lymphoma; format: in vivo; settings: for Tumor growth: 10 mg/kg I.P. twice a day for 4 days, weekly over 3 weeks, JJ08: 5 days after administration
Protocol: The new NAMPT inhibitors (JJ08, FEI191 and FEI199 (in comparison with lead compound, FK866 (APO866))) were evaluated in vivo in a mouse xenograft model of human Burkitt lymphoma. […] non-leaky C.B.-17 SCID mice (8 to 10 weeks old; Iffa Credo, L’Arbresle, France) were housed in micro-isolator cages in a specific pathogen-free room in the animal facility at the University Hospital of Lausanne. Firstly, the mice spent one week alone to acclimatize to their new environment. All animals were handled according to the institutional regulations and with the prior approval of the animal ethic committee of the University of Lausanne. Manipulations were performed in sterile conditions under a laminar flow hood. Firstly, Namalwa cells (1 × 10^7) were injected subcutaneously into the mouse flank side. Once the tumors became palpable and reached a size between 100 and 150 mm^3, mice (n = five/ group) were randomized into control and treated groups. The drugs were administered intraperitoneally (10 mg/kg body weight) in 200 µL 0.9% saline twice a day for 4 days, repeated weekly over 3 weeks. The control group was treated only with 200 µL 0.9% saline. Every day, the animals were monitored for any signs of illness, and in cases where the tumor size reached a diameter of 15 mm, they were sacrificed immediately.
Tumor size (A) and survival rate (B) of mice xenografted with Namalwa cells treated or untreated with NAMPT inhibitors were monitored for 21 days. Twenty-five 6-to-8-week-old C.B.-17 SCID mice were transplanted subcutaneously with Namalwa cells (10^7). Once tumors reached a volume of approximately 100–150 mm^3, at day 14, mice were randomized into five groups of animals (n = 5) with similar body weight. Control groups received vehicle (pink line) and JJ08 (10 mg/kg; light blue line), FEI191 (10 mg/kg; red line), FEI199 (10 mg/kg; green line) or APO866 (10 mg/kg; blue line) were administered as described in the Materials and Methods section. […] Data were analyzed by the Kaplan–Meier survival analysis with log-rank test.

[7] = test system: ML2, Jurkat, Namalwa and RPMI8226 cells; assay: Cell death in the four hematological cancer cell lines, statements for all lines together; format: cell-based, human; settings: 96 h
Protocol: as §1, §2, §3
A dose-dependent analysis of cell death induced by NAMPT inhibitors on ML2 (A), Jurkat (B), Namalwa (C) and RPMI8226 (D) cell lines. The cells were treated with various concentrations of NAMPT inhibitors for 96 h and cell death was assessed by flow cytometry using ANXN and 7AAD staining. […]

T1 sequence (P43490 whole entry): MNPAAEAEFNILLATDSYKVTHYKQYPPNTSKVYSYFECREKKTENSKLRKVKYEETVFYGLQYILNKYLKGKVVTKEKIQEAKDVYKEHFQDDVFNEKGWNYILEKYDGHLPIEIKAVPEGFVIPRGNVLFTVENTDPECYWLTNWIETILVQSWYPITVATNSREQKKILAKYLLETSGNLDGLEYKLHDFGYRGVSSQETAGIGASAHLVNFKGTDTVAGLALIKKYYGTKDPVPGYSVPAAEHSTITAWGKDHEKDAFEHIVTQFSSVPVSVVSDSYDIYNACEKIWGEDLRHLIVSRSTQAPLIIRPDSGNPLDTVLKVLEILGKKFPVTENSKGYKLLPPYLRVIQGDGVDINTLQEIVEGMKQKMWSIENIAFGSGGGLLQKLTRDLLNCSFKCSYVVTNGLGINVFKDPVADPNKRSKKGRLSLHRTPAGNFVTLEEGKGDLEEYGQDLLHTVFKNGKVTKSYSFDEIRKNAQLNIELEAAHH

| SMILES | IC50 [1] | IC50 [2] | Cmax [3] | Tmax [3] | CL/F [3] | half-life ([3]; mouse, ip) | AUC(0-t) ([3]; mouse, ip, read-out: AUC0-24) | Vd/F ([3]; mouse, ip) | IC50 [4] | IC50 [5] | Inhibition of NAMPT activity (purified NAMPT) | Tumor growth [6] | other results |
| --- | --- | --- | --- | --- | --- | --- | --- | --- | --- | --- | --- | --- | --- |
| O=C(/C=C/c1cccnc1)NCCCCC1CCN(C(=O)c2ccccc2)CC1 [APO866, reference compound] | 0.23 nM | 0.58 nM | 28,028 ng/mL | 0.17 h | 24 mL/h | 3.74 h | 16400 ng·h/mL | 0.131 L | 0.47 nM | 0.41 nM |  |  |  |
| O=C(/C=C/c1cccnc1)NCCCCC1CCN(C(=O)c2ccco2)CC1 [JJ08, (E)-N-(4-(1-(furan-2-carbonyl)piperidin-4-yl)butyl)-3-(pyridin-3-yl)acrylamide] | 0.3 nM | 0.58 nM |  |  | 53 mL/h | 6.58 h | 7560 ng·h/mL | 0.502 L | 0.85 nM | 0.51 nM | full inhibition | completely eradicated tumor growth | AUC0-24, fold lower than that of APO866 ([3]; mice, I.P.): approximately 2 fold; CL/F, fold higher compared to APO866 ([3]; mice, I.P.): 2 fold; Cmax ([3]; mouse, ip, read-out: Cmax): 24300 ng/mL; Tmax ([3]; mouse, ip, read-out: Tmax): 0.17 h; Signs of toxicity (loss of body weight, lethargy, rough coat, premature death) ([6]; xenografted mice, 10 mg/kg I.P.): well tolerated |
| N#CN=C(NC/C=C/CCC1CCN(C(=O)c2ccco2)CC1)Nc1ccncc1 [FEI199] | 0.12 nM | 0.29 nM | 12,031 ng/mL | 0.17 h | 108 mL/h |  |  |  | 0.25 nM | 0.21 nM | full inhibition | did not stop tumor progression, but significantly delayed it | IC50 ([7]; Homo sapiens, all four cell lines, read-out: IC50 in all malignancies): < 0.3 nM; Concentration inducing maximal cell killing ([7]; all tested cell lines): ≤ 0.5 nM; Clearance, fold higher than APO866 or JJ08 ([3]; mice, I.P.): more than 4 fold; AUC(0-t) ([3]; mouse, ip, AUC calculated from PK measurements up to 8 h, read-out: AUC0-24 (*)): 3720 ng·h/mL |
